Laboratory results: PubChem BioAssay AID2060503 (Molecular Pharmacology Branch, DTP, NCI, 2025)

System: 817829-284-R-J1-PDC complex spheroids, viability
Experiment: Anticancer human tumor 817829-284-R-J1-PDC patient-derived colon adenocarcinoma cell line growth inhibition [GQUAD]
Conditions: for IC50: curve of first compound; for viability, T/C: stronger effect = lower value
Procedure, shortened: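 Tumor cells were grown as complex spheroids with HUVEC endothelial cells and mesenchymal stem cells as stroma. G-quadruplex stabilizers were combined with targeted agents over half-log dilutions from near the clinical Cmax, or from 10 microM.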

[1] = second compound 0.0316 µM, first compound 0.0316 µM
[2] = second compound 0.0316 µM, first compound 0.1 µM
[3] = second compound 0.0316 µM, first compound 0.316 µM
[4] = second compound 0.0316 µM, first compound 1 µM
[5] = second compound 0.0316 µM, first compound 3.16 µM
[6] = second compound 0.0316 µM, first compound 10 µM
[7] = second compound 0.1 µM, first compound 0.0316 µM
[8] = second compound 0.1 µM, first compound 0.1 µM
[9] = second compound 0.1 µM, first compound 0.316 µM
[10] = second compound 0.1 µM, first compound 1 µM
[11] = second compound 0.1 µM, first compound 3.16 µM
[12] = second compound 0.1 µM, first compound 10 µM
[13] = second compound 0.316 µM, first compound 0.0316 µM
[14] = second compound 0.316 µM, first compound 0.1 µM
[15] = second compound 0.316 µM, first compound 0.316 µM
[16] = second compound 0.316 µM, first compound 1 µM
[17] = second compound 0.316 µM, first compound 3.16 µM
[18] = second compound 0.316 µM, first compound 10 µM
[19] = second compound 1 µM, first compound 0.0316 µM
[20] = second compound 1 µM, first compound 0.1 µM
[21] = second compound 1 µM, first compound 0.316 µM
[22] = second compound 1 µM, first compound 1 µM
[23] = second compound 1 µM, first compound 3.16 µM
[24] = second compound 1 µM, first compound 10 µM
[25] = second compound 3.16 µM, first compound 0.0316 µM
[26] = second compound 3.16 µM, first compound 0.1 µM
[27] = second compound 3.16 µM, first compound 0.316 µM
[28] = second compound 3.16 µM, first compound 1 µM
[29] = second compound 3.16 µM, first compound 3.16 µM
[30] = second compound 3.16 µM, first compound 10 µM
[31] = second compound 10 µM, first compound 0.0316 µM
[32] = second compound 10 µM, first compound 0.1 µM
[33] = second compound 10 µM, first compound 0.316 µM
[34] = second compound 10 µM, first compound 1 µM
[35] = second compound 10 µM, first compound 3.16 µM
[36] = second compound 10 µM, first compound 10 µM
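Also: spheroids exposed to agents for 7 days before readout.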
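For viability, T/C in this document: percent viability relative to DMSO vehicle control taken as 100%.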

Compound: Cc1cccc(N(C)C(=O)C2C(O)CCN2c2nc(C)cc(C(F)(F)F)c2C#N)c1 (stereo not drawn) + Cc1cnc(CNC(=O)c2c(=O)c3ccc(N4CCCN(C)CC4)nc3n3c2sc2ccccc23)cn1
- IC50 (second compound 0.0316 µM): > 10 µM
- IC50 (second compound 0.1 µM): < 0.0316 µM
- IC50 (second compound 0.316 µM): < 0.0316 µM
- IC50 (second compound 1 µM): < 0.0316 µM
- IC50 (second compound 3.16 µM): < 0.0316 µM
- IC50 (second compound 10 µM): < 0.0316 µM
- viability, T/C [1]: 85.6%
- viability, T/C [2]: 82.6%
- viability, T/C [3]: 81.8%
- viability, T/C [4]: 53.1%
- viability, T/C [5]: 91.4%
- viability, T/C [6]: 75%
- viability, T/C [7]: 38.5%
- viability, T/C [8]: 36.7%
- viability, T/C [9]: 29.3%
- viability, T/C [10]: 36.1%
- viability, T/C [11]: 39.3%
- viability, T/C [12]: 33.9%
- viability, T/C [13]: 27.7%
- viability, T/C [14]: 30.4%
- viability, T/C [15]: 26.6%
- viability, T/C [16]: 25.9%
- viability, T/C [17]: 28.6%
- viability, T/C [18]: 23%
- viability, T/C [19]: 19.2%
- viability, T/C [20]: 22.1%
- viability, T/C [21]: 22.1%
- viability, T/C [22]: 20.2%
- viability, T/C [23]: 22.9%
- viability, T/C [24]: 19.1%
- viability, T/C [25]: 20.1%
- viability, T/C [26]: 18.9%
- viability, T/C [27]: 20.4%
- viability, T/C [28]: 18.8%
- viability, T/C [29]: 18%
- viability, T/C [30]: 17.2%
- viability, T/C [31]: 0.19%
- viability, T/C [32]: 0.22%
- viability, T/C [33]: 0.21%
- viability, T/C [34]: 0.21%
- viability, T/C [35]: 0.24%
- viability, T/C [36]: 0.21%

Compound: C=CC(=O)N1CCN(c2nc(=O)n(-c3c(C)ccnc3C(C)C)c3nc(-c4c(O)cccc4F)c(F)cc23)C(C)C1 (stereo not drawn) + Cc1[nH]c2ccc(F)cc2c1-c1nc2c3cccnc3c3ncccc3c2[nH]1
- IC50 (second compound 0.0316 µM): > 10 µM
- IC50 (second compound 0.1 µM): > 10 µM
- IC50 (second compound 0.316 µM): > 10 µM
- IC50 (second compound 1 µM): > 10 µM
- IC50 (second compound 3.16 µM): 3.26 µM
- IC50 (second compound 10 µM): < 0.0316 µM
- viability, T/C [1]: 106%
- viability, T/C [2]: 81%
- viability, T/C [3]: 109%
- viability, T/C [4]: 74.4%
- viability, T/C [5]: 106%
- viability, T/C [6]: 97.5%
- viability, T/C [7]: 87.2%
- viability, T/C [8]: 90.1%
- viability, T/C [9]: 88.5%
- viability, T/C [10]: 91.2%
- viability, T/C [11]: 108%
- viability, T/C [12]: 92.8%
- viability, T/C [13]: 84.3%
- viability, T/C [14]: 102%
- viability, T/C [15]: 104%
- viability, T/C [16]: 101%
- viability, T/C [17]: 102%
- viability, T/C [18]: 104%
- viability, T/C [19]: 82.1%
- viability, T/C [20]: 97%
- viability, T/C [21]: 93.6%
- viability, T/C [22]: 97.6%
- viability, T/C [23]: 98.2%
- viability, T/C [24]: 79.8%
- viability, T/C [25]: 102%
- viability, T/C [26]: 99.3%
- viability, T/C [27]: 75.7%
- viability, T/C [28]: 68.2%
- viability, T/C [29]: 51.7%
- viability, T/C [30]: 32.4%
- viability, T/C [31]: 11.3%
- viability, T/C [32]: 18.4%
- viability, T/C [33]: 44.3%
- viability, T/C [34]: 15.1%
- viability, T/C [35]: 11.6%
- viability, T/C [36]: 17.1%

Compound: C#Cc1c(F)ccc2cc(O)cc(-c3ncc4c(N5CC6CCC(C5)N6)nc(OCC56CCCN5CC(F)C6)nc4c3F)c12 (stereo not drawn) + Cc1cnc(CNC(=O)c2c(=O)c3ccc(N4CCCN(C)CC4)nc3n3c2sc2ccccc23)cn1
- IC50 (second compound 0.0316 µM): > 10 µM
- IC50 (second compound 0.1 µM): < 0.0316 µM
- IC50 (second compound 0.316 µM): < 0.0316 µM
- IC50 (second compound 1 µM): < 0.0316 µM
- IC50 (second compound 3.16 µM): < 0.0316 µM
- IC50 (second compound 10 µM): < 0.0316 µM
- viability, T/C [1]: 82.9%
- viability, T/C [2]: 72.5%
- viability, T/C [3]: 84.7%
- viability, T/C [4]: 61%
- viability, T/C [5]: 91.2%
- viability, T/C [6]: 89.8%
- viability, T/C [7]: 30.7%
- viability, T/C [8]: 35.5%
- viability, T/C [9]: 32.8%
- viability, T/C [10]: 36.2%
- viability, T/C [11]: 33.9%
- viability, T/C [12]: 35.9%
- viability, T/C [13]: 22.9%
- viability, T/C [14]: 28.6%
- viability, T/C [15]: 24.8%
- viability, T/C [16]: 24.1%
- viability, T/C [17]: 29.4%
- viability, T/C [18]: 27%
- viability, T/C [19]: 17.9%
- viability, T/C [20]: 23.4%
- viability, T/C [21]: 20.6%
- viability, T/C [22]: 21.8%
- viability, T/C [23]: 23%
- viability, T/C [24]: 19.8%
- viability, T/C [25]: 17%
- viability, T/C [26]: 20.1%
- viability, T/C [27]: 18.8%
- viability, T/C [28]: 17.3%
- viability, T/C [29]: 22.7%
- viability, T/C [30]: 20.5%
- viability, T/C [31]: 0.13%
- viability, T/C [32]: 0.18%
- viability, T/C [33]: 0.19%
- viability, T/C [34]: 0.15%
- viability, T/C [35]: 0.18%
- viability, T/C [36]: 0.16%

Compound: O=C(c1cc(Cc2n[nH]c(=O)c3ccccc23)ccc1F)N1CCN(C(=O)C2CC2)CC1 + CN(C)c1ccc(Nc2c3ccc(NC(=O)CCN4CCCC4)cc3nc3cc(NC(=O)CCN4CCCC4)ccc23)cc1
- IC50 (second compound 0.0316 µM): > 10 µM
- IC50 (second compound 0.1 µM): > 10 µM
- IC50 (second compound 0.316 µM): > 10 µM
- IC50 (second compound 1 µM): > 10 µM
- IC50 (second compound 3.16 µM): > 10 µM
- IC50 (second compound 10 µM): > 10 µM
- viability, T/C [1]: 108%
- viability, T/C [2]: 97.8%
- viability, T/C [3]: 102%
- viability, T/C [4]: 90.7%
- viability, T/C [5]: 78.8%
- viability, T/C [6]: 58.3%
- viability, T/C [7]: 101%
- viability, T/C [8]: 107%
- viability, T/C [9]: 108%
- viability, T/C [10]: 98.6%
- viability, T/C [11]: 100%
- viability, T/C [12]: 60.2%
- viability, T/C [13]: 102%
- viability, T/C [14]: 97.6%
- viability, T/C [15]: 107%
- viability, T/C [16]: 93%
- viability, T/C [17]: 95.2%
- viability, T/C [18]: 66.8%
- viability, T/C [19]: 107%
- viability, T/C [20]: 96.7%
- viability, T/C [21]: 99%
- viability, T/C [22]: 93.7%
- viability, T/C [23]: 93.7%
- viability, T/C [24]: 62.5%
- viability, T/C [25]: 100%
- viability, T/C [26]: 103%
- viability, T/C [27]: 94.1%
- viability, T/C [28]: 99.5%
- viability, T/C [29]: 94.9%
- viability, T/C [30]: 58.3%
- viability, T/C [31]: 97.4%
- viability, T/C [32]: 102%
- viability, T/C [33]: 94.5%
- viability, T/C [34]: 88.4%
- viability, T/C [35]: 70.7%
- viability, T/C [36]: 52.5%
